72 compounds from PubChem BioAssay AID449762 (Southern Research Specialized Biocontainment Screening …, 2010) can be followed below.

SMILES strings stand for the structures. Results filed as inconclusive are left out. Where only a bound is given, the exact number is not on record here.

In this experiment the test system is M. tuberculosis H37Rv growth inhibition, 7H9 media. In words: M. tuberculosis growth inhibition, HTS (AID 449762).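 For all read-outs here: bacterial growth assessed after seven days of incubation.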 Conditions: for IC90: measured here: IC90 growth inhibition.

The term IC50 denotes the concentration that inhibits the measured activity by half. A word on the IC90: it is the concentration needed for an effect of 90%.

In the case of `CC(=O)N(Cc1ccc(F)cc1)C1=C(NCCc2ccccc2)C(=O)c2ccccc2C1=O`, the IC50 was 5.83 µM and the IC90 came out at 6.59 µM.

For `CCCSc1nnc(Sc2nnnn2-c2ccccc2)s1`, the concentration for half-maximal inhibition (IC50) is 10.2 µM and the IC90 turned out to be 33 µM.

Compound `CCOC(=O)c1ccc(N=C2SC(C(=O)Nc3ccc(C(=O)O)cc3)CC(=O)N2Cc2cccs2)cc1` (centres undefined) returned an IC90 of more than 100 µM.

For `C=CCc1cc(C)ccc1OCCCC(C(=O)OCC)C(=O)OCC`, the IC50 is 9.72 µM and the concentration for an effect of 90% (IC90) stood at 21.4 µM.

For the compound `CCCC1CCC(C(=O)Nn2c(C)nc3ccccc3c2=O)CC1` (centres undefined), the IC50 was 50.1 µM and the IC90 was more than 100 µM.

Regarding `C=CC[N@@+]12CC[C@]34c5ccccc5N5/C=C6\C7N(/C=C(\C53)[C@@H](C[C@@H]41)/C(=C/CO)C2)c1ccccc1[C@@]71CC[N@@+]2(CC=C)C/C(=C\CO)[C@@H]6C[C@@H]12` (some centres undefined), the half-inhibitory concentration (IC50) was 56.7 µM and the 90% effect concentration (IC90) is more than 100 µM.

Consider `COc1ccc(-c2cc3ccccc3oc2=O)cc1NC(=O)c1ccc([N+](=O)[O-])o1`, for which the IC50 is 0.37 µM and the IC90 was more than 100 µM.

Take `CCOC(=O)C1CCN(c2cc3c(cc2NC(=O)c2ccccc2Cl)n(C)c(=O)n3C)CC1`: the IC50 is 46.6 µM and the IC90 turned out to be 53.9 µM.

As for `COc1cc2nc(N3CCN(c4cc(C)ccc4C)CC3)nc(N)c2cc1OC`, the IC50 was 13.8 µM and the IC90 is 15.8 µM.

Turning to `CCOc1cc2c(cc1OCC)-n1cccc1C(c1ccc(C(C)C)cc1)NC2` (centres undefined), the IC50 was 20.6 µM and the IC90 amounted to 29.6 µM.

As to `Cc1ccc(C2=NNC3(CCOC(C)(C)C3)S2)cc1` (centres undefined), the IC50 was 11.1 µM and the IC90 was 14.9 µM.

On to `CCOc1cccc2cc(C(=O)Nc3nccs3)c(=O)oc12`, for which the IC50 is 0.34 µM and the IC90 was determined as 29.6 µM.

`S=c1nc2ccccc2c2nc(-c3ccccc3)[nH]n12`: the IC50 is 10.4 µM and the IC90 came out at 14.6 µM.

With `Cc1nn(-c2ccccc2)c(N2CCCC2)c1/C=N/Nc1ccc(S(N)(=O)=O)cc1[N+](=O)[O-]`, the concentration for an effect of 90% (IC90) is more than 100 µM.

`COc1ccccc1C(=O)NNC(=O)C(=O)NCc1ccccc1`: the IC50 is 10.6 µM and the IC90 amounted to 37.9 µM.

In the case of `Clc1nc2c(-c3ccccc3)nnn2c2ccccc12`, the IC50 is 9.39 µM and the IC90 is 16.6 µM.

Turning to `Cn1nc(-c2ccccc2F)c2cc(C(=O)Nc3ccc4c(c3)OCCO4)sc21`, the IC50 was 17.7 µM and the IC90 is 35.5 µM.

`Cn1cc(/C=C2\C(=O)NC(=O)N(c3ccccc3)C2=O)c2ccccc21`: the IC50 is 10.7 µM and the concentration for an effect of 90% (IC90) was 24.2 µM.

Turning to `CCN(Cc1ccccc1)c1ccc(/C=N/N=C(N)N)cc1`, the IC50 is 17.1 µM and the IC90 worked out at 30.1 µM.

On to `COC(=O)C(C)Oc1cc(C)ccc1COc1ccc(-n2nc(C)n(C(F)F)c2=O)cc1` (centres undefined), for which the 50% inhibitory concentration (IC50) was 16.6 µM and the 90% effect concentration (IC90) stood at 32.9 µM.

`Cc1cc2nc(C3CCN(CC4COc5ccccc5O4)CC3)[nH]c2cc1C` (centres undefined): the IC50 is 15.5 µM and the IC90 worked out at 25.4 µM.

`Cc1cc2nc(/N=C(\N)NC(=O)C(C)C)nc(C)c2cc1C`: the IC50 is 4.67 µM and the IC90 came out at 61.2 µM.

`COc1ccc(C2Oc3ccccc3C3=C2C(c2cccs2)n2ncnc2N3)cc1` (centres undefined): the IC50 is 51.2 µM and the IC90 was more than 100 µM.

On to `CCNCC(=O)N1c2ccccc2CCc2ccc(NC(=O)OC(C)C)cc21`, for which the IC50 is 55.9 µM and the IC90 was found to be 71.3 µM.

Consider `Oc1ccc(F)c2cccnc12`, for which the IC50 is 5.26 µM and the IC90 turned out to be 6.88 µM.

Consider `Cn1c(NCC(O)c2ccccc2)nc2c1c(=O)n(Cc1ccc(Cl)c(Cl)c1)c(=O)n2C` (centres undefined), for which the IC50 was 7.51 µM and the 90% effect concentration (IC90) came to 18.1 µM.

Consider `COC(=O)CSc1nnc(CNc2ccc(Cl)cc2)n1-c1ccccc1`, for which the IC50 is 12.7 µM and the IC90 was 37.4 µM.

For the compound `Cc1cccc(C2=N/C(=C\c3cccs3)C(=O)O2)c1`, the half-inhibitory concentration (IC50) is 2.68 µM and the IC90 came out at 15.5 µM.

For `Cc1cc(C)n(-c2cc(C(C)(C)C)nc3c(-c4ccccc4)cnn23)n1`, the IC50 is 27.3 µM and the 90% effect concentration (IC90) stood at 34.7 µM.

In the case of `COCCN(C(=O)C1CC(=O)N(Cc2ccccc2)C1)c1nc(-c2ccc([N+](=O)[O-])cc2)cs1` (centres undefined), the IC50 is 24.5 µM and the IC90 was 25.4 µM.

As for `CCc1ccc(NC(=S)/N=C(\N)Nc2nc(C)c3cc(CC)ccc3n2)cc1`, the IC50 was 7.31 µM and the concentration for an effect of 90% (IC90) turned out to be 40 µM.

As to `C=CCNCC(=O)N1N=C(c2ccc3ccccc3c2)CC1c1ccc(OC)cc1` (centres undefined), the IC50 is 21.8 µM and the IC90 came to 24.3 µM.

As for `O=[N+]([O-])c1cc(-c2ncccn2)c([N+](=O)[O-])s1`, the IC50 was 12.9 µM and the IC90 was determined as 32.5 µM.

For the compound `Cc1nn(-c2ccccn2)c2c1-c1nc(N3CCOCC3)ncc1CC2`, the IC50 was 12.9 µM and the IC90 was more than 100 µM.

In turn, `CCCCCCSc1nsc(NC(=O)CC(C)C)n1` showed an IC90 of more than 100 µM.

In the case of `CN1OC(COC(=O)c2ccc(Cl)cc2Cl)CC1c1ccccc1` (centres undefined), the IC50 is 2.43 µM and the IC90 came out at 16.3 µM.

For `Nc1c(C(=O)OCC2CCCO2)c2nc3ccccc3nc2n1C1CCCC1` (centres undefined), the IC50 was 54.5 µM and the concentration for an effect of 90% (IC90) was more than 100 µM.

Consider `O=C(CCSc1ccccn1)c1ccccc1`, for which the IC50 is 10.2 µM and the IC90 was found to be 19.1 µM.

Turning to `CC1(C)CC(=O)C2=C(C1)NC(Nc1nc3ccccc3o1)=NC2c1ccccn1` (centres undefined), the IC50 is less than 0.2 µM and the IC90 amounted to 2.31 µM.

Regarding `CCCNc1nc(-c2cc(C(=O)Nc3ccccc3)on2)cc(C(C)C)n1`, the IC50 was 35 µM and the IC90 came to 59.3 µM.

As for `CCNC(=S)NN=C1c2ccccc2-c2ccccc21`, the 50% inhibitory concentration (IC50) is 11.2 µM and the IC90 came to 12.7 µM.

With `COc1cc2[nH]c(Cl)c([N+](=O)[O-])c2cc1OC`, the IC50 was 99.6 µM and the IC90 is more than 100 µM.

In the case of `CCCNC(=S)Nc1ccc(Nc2ccccc2)cc1`, the IC50 was 31.7 µM and the concentration for an effect of 90% (IC90) is 52 µM.

In turn, `Cn1nnc(NC(=S)NC(=O)c2ccc(-c3ccc(Br)cc3)o2)n1` displayed an IC90 of more than 100 µM.

For the compound `COc1ccccc1/C=N/NC(=O)NC12CC3CC(CC(C3)C1)C2`, the IC90 is more than 100 µM.

Regarding `COc1ccc(C(=O)/C=C/Sc2nc3ccccc3o2)cc1`, the IC50 was 37.8 µM and the IC90 is more than 100 µM.

As for `N#C/C(=C/c1ccc(Sc2nc3ccccc3[nH]2)o1)c1cccc(Br)c1`, the IC50 was 77.6 µM and the IC90 is more than 100 µM.

Turning to `Cc1ccccc1CSc1nsc(N)n1`, the IC50 is 6.7 µM and the IC90 stood at 19.6 µM.

With `CC(C)CCC[C@@H](C)[C@H]1CC[C@H]2[C@@H]3C(=O)C=C4C[C@@H](O)CC[C@]4(C)[C@H]3CC[C@]12C`, the IC50 is 43.3 µM and the IC90 was found to be 47.8 µM.

On to `Cc1ccc(Cl)cc1N1CCN(C(=O)C2CCC(=O)N(C3CCCCCC3)C2)CC1` (centres undefined), for which the half-maximal inhibitory concentration (IC50) was 19.3 µM and the concentration for an effect of 90% (IC90) stood at 28.6 µM.

Regarding `O=C(Nc1cccc(-c2ccc(N3CCCCC3)nn2)c1)c1ccc(Br)o1`, the IC50 is 16.5 µM and the 90% effect concentration (IC90) was 42.4 µM.

In the case of `C#CCOc1ccc2c(c1)c(C(C)=O)c(C)n2Cc1ccccc1`, the IC50 was 68.4 µM and the IC90 is more than 100 µM.

With `OCC(O)/C=N/Nc1nc(Nc2ccccc2)nc(Nc2ccccc2)n1` (centres undefined), the IC50 is 9.56 µM and the IC90 was found to be 12.5 µM.

Consider `O=C(C1CCCN(c2ncnc3c2nc2n3CCCCC2)C1)N1CCN(c2ccc(Cl)cc2)CC1` (centres undefined), for which the IC50 is 30.6 µM and the IC90 was determined as 40.3 µM.

Consider `Oc1ccc(Nc2nc(-c3ccc4ccccc4c3)cs2)cc1`, for which the IC50 is 42.9 µM and the IC90 was more than 100 µM.

Regarding `CCOC(=O)c1cc(C)nc(Sc2ccc(C)cc2)c1C#N`, the IC50 was 4.4 µM and the IC90 was found to be 11.3 µM.

Consider `c1ccc(Cn2nnc3c(N4CCc5ccccc5C4)ncnc32)cc1`, for which the 50% inhibitory concentration (IC50) was 19.7 µM and the IC90 was found to be 72.8 µM.

As for `COc1ccccc1OC(=O)c1ccc(S(=O)(=O)N(C)C)cc1`, the IC50 was 9.96 µM and the IC90 is 18.4 µM.

For `O=C(OCC(=O)N1CCN(c2ccccc2)CC1)c1cnc(Cl)c(Cl)c1`, the IC50 is 20 µM and the IC90 turned out to be 41.7 µM.

As to `Cc1ccsc1/C=C1\SC(N2CCOCC2)=NC1=O`, the IC50 is 21.9 µM and the IC90 is 34.1 µM.

`CCCCn1c(NCc2ccc3c(c2)OCO3)nc2ccccc21`: the IC50 was 19 µM and the IC90 came to 31.1 µM.

On to `CN(C(=O)c1cccc(Nc2ccc(-c3ccc4c(c3)OCCO4)nn2)c1)C1CCCCC1`, for which the IC50 is 50.8 µM and the IC90 was more than 100 µM.

Take `O=C1NCC(c2ccccc2)C1C(=O)N/N=C\c1ccc(-c2ccc(Cl)c(Cl)c2)o1` (centres undefined): the IC50 is 91 µM and the IC90 was more than 100 µM.

On to `N#Cc1cccc(NC(=O)N2CCC(c3nc4c(nnn4Cc4cccc(Cl)c4)c(=O)[nH]3)CC2)c1`, for which the IC50 is 12.4 µM and the IC90 came to 13.5 µM.

For the compound `Cc1nc(NC(=O)CC(C)C)sc1-c1csc(Nc2ccc(Cl)cc2Cl)n1`, the IC50 was 46.3 µM and the IC90 worked out at 52.5 µM.

Turning to `O=C(Nc1ccc(Oc2cccc(C(F)(F)F)c2)nc1)c1cccs1`, the IC50 was 39.6 µM and the IC90 was more than 100 µM.

For `O=C(CCS(=O)(=O)c1ccc(F)cc1)Nc1nc(-c2ccccn2)cs1`, the IC50 is 4.5 µM and the IC90 came to 17.1 µM.

As for `C[C@@H]1CN([C@H](C)CO)C(=O)c2cc(NC(=O)Nc3ccc(C(F)(F)F)cc3)ccc2O[C@H]1CN(C)S(=O)(=O)c1cccs1`, the IC50 is 22.6 µM and the IC90 turned out to be 25.9 µM.

Turning to `CCOc1ccc(N2C=Nc3ccc(OCC)cc3C2)cc1`, the IC50 is 44 µM and the IC90 is 89.4 µM.

With `COc1ccc(-c2cc3n(n2)CCc2nc4ccccc4n2-3)cc1`, the IC50 is 1.06 µM and the IC90 came out at 5.92 µM.

In the case of `O=C(C[C@@H]1C/C=C\C[C@H](NC(=O)OCC2c3ccccc3-c3ccccc32)C(=O)OC[C@H]2CCCN2C1=O)N[C@@H](CO)Cc1ccccc1`, the IC50 is 16.1 µM and the IC90 is 28.2 µM.

Take `CCOC(=O)CCCc1ccc(/C(C)=N/NC(N)=S)cc1`: the IC50 was 6.5 µM and the IC90 amounted to 14.7 µM.
